Inconclusive results and toxic doses are left out. Rule for the calls: active = survival T/C of 150% or more; inactive = T/C below 125% in these data.
Test system: CD2F1 mice, L1210 leukemia ip, survival T/C
Assay: NCI In Vivo Anticancer Drug Screen. Data for tumor model L1210 Leukemia (intraperitoneal) in CD2F1 (CDF1) mice
Conditions: higher = longer survival
In short: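 Each value reflects a quotient of treated over vehicle control outcomes in mice with a transplanted tumor.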

[1] = endpoint: mean survival time, dose: 100.0 mg/kg/injection, schedule: Q01DX009 (ip), vehicle: saline with Tween-80
[2] = endpoint: mean survival time, dose: 100.0 mg/kg/injection, schedule: Q04DX003 (ip), vehicle: saline with Tween-80
[3] = endpoint: mean survival time, dose: 200.0 mg/kg/injection, schedule: Q01DX009 (ip), vehicle: saline with Tween-80
[4] = endpoint: mean survival time, dose: 200.0 mg/kg/injection, schedule: Q04DX003 (ip), vehicle: saline with Tween-80
[5] = endpoint: mean survival time, dose: 400.0 mg/kg/injection, schedule: Q01DX009 (ip), vehicle: saline with Tween-80
[6] = endpoint: mean survival time, dose: 400.0 mg/kg/injection, schedule: Q04DX003 (ip), vehicle: saline with Tween-80
[7] = endpoint: mean survival time, dose: 100.0 mg/kg/injection, schedule: Q01DX001 (ip), vehicle: saline with Tween-80
[8] = endpoint: mean survival time, dose: 200.0 mg/kg/injection, schedule: Q01DX001 (ip), vehicle: saline with Tween-80
[9] = endpoint: mean survival time, dose: 50.0 mg/kg/injection, schedule: Q01DX001 (ip), vehicle: saline with Tween-80
[10] = endpoint: mean survival time, dose: 100.0 mg/kg/injection, schedule: Q04DX003 (ip), vehicle: saline
[11] = endpoint: mean survival time, dose: 200.0 mg/kg/injection, schedule: Q04DX003 (ip), vehicle: saline
[12] = endpoint: mean survival time, dose: 400.0 mg/kg/injection, schedule: Q04DX003 (ip), vehicle: saline
[13] = endpoint: mean survival time, dose: 100.0 mg/kg/injection, schedule: Q01DX009 (ip), vehicle: saline

Measured: T/C

Br/C(C=Nc1ccccc1)=C\Nc1ccccc1
inactive: [1] 102 % of control | [2] 101 % of control | [3] 86 % of control | [4] 108 % of control | [5] 86 % of control | [6] 108 % of control

O=C(CCl)N1CCC2(CC1)SSC1(CCN(C(=O)CCl)CC1)S2
inactive: endpoint: mean survival time, dose: 12.5 mg/kg/injection, schedule: Q01DX009 (ip), vehicle: saline with Tween-80 94 % of control | endpoint: mean survival time, dose: 25.0 mg/kg/injection, schedule: Q01DX009 (ip), vehicle: saline with Tween-80 93 % of control | endpoint: mean survival time, dose: 25.0 mg/kg/injection, schedule: Q04DX003 (ip), vehicle: saline with Tween-80 89 % of control | endpoint: mean survival time, dose: 50.0 mg/kg/injection, schedule: Q01DX009 (ip), vehicle: saline with Tween-80 97 % of control | endpoint: mean survival time, dose: 50.0 mg/kg/injection, schedule: Q04DX003 (ip), vehicle: saline with Tween-80 100 % of control | [2] 93 % of control

CC(C)CC(NC(=O)CCl)C(=O)O (stereo not given)
inactive: [1] 101 % of control | [2] 97 % of control | [3] 96 % of control | [4] 98 % of control | [5] 101 % of control | [6] 96 % of control

O=C(O)c1ccc(Cl)c2ncccc12
inactive: endpoint: mean survival time, dose: 37.5 mg/kg/injection, schedule: Q01DX009 (ip), vehicle: saline 100 % of control | endpoint: mean survival time, dose: 75.0 mg/kg/injection, schedule: Q01DX009 (ip), vehicle: saline 95 % of control | endpoint: mean survival time, dose: 75.0 mg/kg/injection, schedule: Q04DX003 (ip), vehicle: saline 100 % of control | endpoint: mean survival time, dose: 150.0 mg/kg/injection, schedule: Q01DX009 (ip), vehicle: saline 105 % of control | endpoint: mean survival time, dose: 150.0 mg/kg/injection, schedule: Q04DX003 (ip), vehicle: saline 97 % of control | endpoint: mean survival time, dose: 300.0 mg/kg/injection, schedule: Q04DX003 (ip), vehicle: saline 95 % of control

CC1Oc2cc3c(-c4c(O)cc(O)c5c(O)c6c(cc45)OC(C)C(C)C6=O)c(O)cc(O)c3c(O)c2C(=O)C1C (stereo not given)
inactive: endpoint: median survival time, dose: 5.0 mg/kg/injection, schedule: Q01DX009 (ip), vehicle: suspension in saline 87 % of control | endpoint: median survival time, dose: 10.0 mg/kg/injection, schedule: Q01DX009 (ip), vehicle: suspension in saline 91 % of control

CCOP(=O)(C/C(=N\Nc1ccc([N+](=O)[O-])cc1[N+](=O)[O-])c1ccccc1)c1ccccc1 (stereo not given)
inactive: [7] 90 % of control | [8] 92 % of control | endpoint: mean survival time, dose: 400.0 mg/kg/injection, schedule: Q01DX001 (ip), vehicle: saline with Tween-80 97 % of control

Brc1ccccc1-c1ccccc1-c1ccccc1
inactive: [1] 106 % of control | [3] 101 % of control | [5] 101 % of control

COC(=O)C1(C)CCCC2(C)C1CCC1(O)C2CC2OC2(C(C)C)C1O (stereo not given)
inactive: [1] 102 % of control | [2] 97 % of control | [3] 96 % of control | [4] 93 % of control | [5] 98 % of control | [6] 87 % of control

CNC(=O)Sc1nnnc2ccccc12
inactive: [2] 101 % of control | [4] 93 % of control | [6] 98 % of control

CCCCCC(O)C(C)C (stereo not given)
inactive: endpoint: mean survival time, dose: 75.0 mg/kg/injection, schedule: Q01DX001 (ip), vehicle: saline 98 % of control | endpoint: mean survival time, dose: 150.0 mg/kg/injection, schedule: Q01DX001 (ip), vehicle: saline 91 % of control

O=C1NC(=O)C2(CCN(CC3COc4ccccc4O3)CC2)N1c1ccccc1 (stereo not given)
inactive: [9] 96 % of control | [7] 101 % of control | [8] 96 % of control

Cc1cccc(C)c1NC(=O)c1ccccc1C(=O)O
inactive: [1] 92 % of control | [2] 98 % of control | [3] 92 % of control | [4] 98 % of control | [5] 97 % of control | [6] 96 % of control

N[C@@H]1CCCC[C@H]1N.O=C([O-])C(=O)[O-].[Pt+4]
inactive: endpoint: mean survival time, dose: 0.78 mg/kg/injection, schedule: Q04DX003 (ip), vehicle: saline 120 % of control

CCCNC(=O)Oc1ccc(C(=O)OCC)cc1
inactive: [10] 97 % of control | [11] 101 % of control | [12] 106 % of control

CN1CCC(O)(C#N)CC1
inactive: endpoint: mean survival time, dose: 3.75 mg/kg/injection, schedule: Q04DX003 (ip), vehicle: saline 102 % of control | endpoint: mean survival time, dose: 7.5 mg/kg/injection, schedule: Q04DX003 (ip), vehicle: saline 102 % of control | endpoint: mean survival time, dose: 15.0 mg/kg/injection, schedule: Q04DX003 (ip), vehicle: saline 100 % of control

Cc1cc2c(cc1C)C(=O)c1ccccc1C2=O
inactive: endpoint: mean survival time, dose: 50.0 mg/kg/injection, schedule: Q01DX009 (ip), vehicle: saline 102 % of control | [13] 93 % of control | [10] 97 % of control | [11] 89 % of control

Nc1ccccc1NS(=O)(=O)c1ccc(Cl)cc1
inactive: [1] 95 % of control | [3] 101 % of control | [5] 106 % of control

Nc1ncnc2c1c1c(=S)[nH]c(=S)[nH]c1n2C1OC(CO)C(O)C1O (stereo not given)
inactive: endpoint: mean survival time, dose: 12.5 mg/kg/injection, schedule: Q01DX005 (ip), vehicle: distilled water + Tween-80 104 % of control | endpoint: mean survival time, dose: 25.0 mg/kg/injection, schedule: Q01DX005 (ip), vehicle: distilled water + Tween-80 105 % of control | endpoint: mean survival time, dose: 50.0 mg/kg/injection, schedule: Q01DX005 (ip), vehicle: distilled water + Tween-80 107 % of control | endpoint: mean survival time, dose: 100.0 mg/kg/injection, schedule: Q01DX005 (ip), vehicle: distilled water + Tween-80 104 % of control | endpoint: mean survival time, dose: 200.0 mg/kg/injection, schedule: Q01DX005 (ip), vehicle: distilled water + Tween-80 102 % of control

O=S(=O)(O)O.[NH2-].[NH2-].[Pt+2]
inactive: endpoint: mean survival time, dose: 0.63 mg/kg/injection, schedule: Q04DX003 (ip), vehicle: dextrose 98 % of control | endpoint: mean survival time, dose: 1.25 mg/kg/injection, schedule: Q04DX003 (ip), vehicle: dextrose 108 % of control | endpoint: mean survival time, dose: 5.0 mg/kg/injection, schedule: Q04DX003 (ip), vehicle: dextrose 95 % of control

CCSSCCN
inactive: [13] 94 % of control | [10] 93 % of control | endpoint: mean survival time, dose: 200.0 mg/kg/injection, schedule: Q01DX009 (ip), vehicle: saline 93 % of control | [11] 89 % of control | endpoint: mean survival time, dose: 400.0 mg/kg/injection, schedule: Q01DX009 (ip), vehicle: saline 102 % of control | [12] 97 % of control

CCCC1C(=O)N2C(N(C)C)=Nc3ccc(C)cc3N2C1=O (stereo not given)
inactive: [2] 94 % of control | [4] 96 % of control | [6] 96 % of control

O=c1[nH]cc(CCCc2ccccc2)c(=O)[nH]1
inactive: [2] 97 % of control | [4] 99 % of control | [6] 90 % of control

Nc1ccc2c(c1)[nH]c1ccccc12
inactive: [2] 93 % of control | [4] 101 % of control

CCOC(=O)C1C(=O)N(C)C(=O)N1Cc1ccccc1 (stereo not given)
inactive: endpoint: mean survival time, dose: 12.5 mg/kg/injection, schedule: Q01DX009 (ip), vehicle: other 93 % of control | endpoint: mean survival time, dose: 25.0 mg/kg/injection, schedule: Q01DX009 (ip), vehicle: other 89 % of control | endpoint: mean survival time, dose: 50.0 mg/kg/injection, schedule: Q01DX009 (ip), vehicle: other 101 % of control | endpoint: mean survival time, dose: 100.0 mg/kg/injection, schedule: Q01DX009 (ip), vehicle: other 101 % of control | endpoint: mean survival time, dose: 200.0 mg/kg/injection, schedule: Q01DX009 (ip), vehicle: other 101 % of control

CCCCCc1cc(/C=C2/N=C(c3ccc[nH]3)C=C2OC)[nH]c1C
inactive: endpoint: mean survival time, dose: 0.25 mg/kg/injection, schedule: Q01DX009 (ip), vehicle: saline with Tween-80 92 % of control | endpoint: mean survival time, dose: 0.5 mg/kg/injection, schedule: Q01DX009 (ip), vehicle: saline with Tween-80 97 % of control | endpoint: mean survival time, dose: 1.0 mg/kg/injection, schedule: Q01DX009 (ip), vehicle: saline with Tween-80 101 % of control | endpoint: mean survival time, dose: 2.0 mg/kg/injection, schedule: Q01DX009 (ip), vehicle: saline with Tween-80 103 % of control | endpoint: mean survival time, dose: 4.0 mg/kg/injection, schedule: Q01DX009 (ip), vehicle: saline with Tween-80 92 % of control

CC(=O)NC(CCc1ccc(Cl)c(Cl)c1)c1cccc(O)c(=O)c1 (stereo not given)
inactive: endpoint: median survival time, dose: 3.12 mg/kg/injection, schedule: Q01DX009 (ip), vehicle: Klucel (hydroxypropylcellulose) (HPC) 94 % of control | endpoint: median survival time, dose: 6.25 mg/kg/injection, schedule: Q01DX009 (ip), vehicle: Klucel (hydroxypropylcellulose) (HPC) 100 % of control | endpoint: median survival time, dose: 12.5 mg/kg/injection, schedule: Q01DX009 (ip), vehicle: Klucel (hydroxypropylcellulose) (HPC) 106 % of control | endpoint: median survival time, dose: 25.0 mg/kg/injection, schedule: Q01DX009 (ip), vehicle: Klucel (hydroxypropylcellulose) (HPC) 102 % of control | endpoint: median survival time, dose: 50.0 mg/kg/injection, schedule: Q01DX009 (ip), vehicle: Klucel (hydroxypropylcellulose) (HPC) 103 % of control | endpoint: median survival time, dose: 100.0 mg/kg/injection, schedule: Q01DX009 (ip), vehicle: Klucel (hydroxypropylcellulose) (HPC) 116 % of control

CN(C)/C=C1\Cc2ccccc2C1=O
inactive: endpoint: mean survival time, dose: 25.0 mg/kg/injection, schedule: Q01DX001 (ip), vehicle: saline with Tween-80 95 % of control | [9] 92 % of control | [7] 90 % of control

CCC(=O)c1cc([N+](=O)[O-])ccc1NC(C)=O
inactive: [2] 100 % of control | [4] 94 % of control | [6] 88 % of control
